Results as given in article doi:10.64898/2025.12.05.692609v2, “Early intervention with a PACAP lactoside following repetitive mild traumatic brain injury prevents persistent LHb hyperactivity and motivational deficits in male mice” (bioRxiv, 2025).
Like-named read-outs stand apart in the source and are kept apart here. Where a SMILES comes first, the peptide text is derived from it. [ ]: non-standard residue; d: D form. The star is where a group is joined. X1 = OC[C@H]1O[C@@H](O[C@H]2[C@H](O)[C@@H](O)[C@H](*)O[C@@H]2CO)[C@H](O)[C@@H](O)[C@H]1O; Nle = CCCC[C@H](N)C(=O)O

Tested on: LHb neurons
Assay type: in vivo, male C57BL/6 mice
[1] = mTBI+early TES2320: 10 mg/kg i.p. within 30 min after each of 5 injuries, cell-attached V=0, ~4 weeks post-injury, n=138 cells/13 mice
[2] = mTBI+late TES2320: single 10 mg/kg i.p. injection one month post-mTBI, cell-attached V=0, n=58 cells/5 mice

Q: Which “effect on mTBI-induced spontaneous LHb tonic hyperactivity” value (early intervention, 10 mg/kg i.p. x5, vs mTBI+vehicle p<0.01, Chi squared test) does the source give for `CCCC[C@H](NC(=O)[C@H](CCC(N)=O)NC(=O)[C@H](CCCCN)NC(=O)[C@H](CCCNC(=N)N)NC(=O)[C@H](Cc1ccc(O)cc1)NC(=O)[C@H](CCCNC(=N)N)NC(=O)[C@H](CO)NC(=O)[C@H](Cc1ccc(O)cc1)NC(=O)[C@H](CO)NC(=O)[C@H](CC(=O)O)NC(=O)[C@@H](NC(=O)[C@H](Cc1ccccc1)NC(=O)[C@@H](NC(=O)CNC(=O)[C@H](CC(=O)O)NC(=O)[C@H](CO)NC(=O)[C@@H](N)Cc1c[nH]cn1)[C@@H](C)CC)[C@@H](C)O)C(=O)N[C@@H](C)C(=O)N[C@H](C(=O)N[C@@H](CCCCN)C(=O)N[C@@H](CCCCN)C(=O)N[C@@H](Cc1ccc(O)cc1)C(=O)N[C@@H](CC(C)C)C(=O)N[C@@H](CO[C@@H]1O[C@H](CO)[C@@H](O[C@@H]2O[C@H](CO)[C@H](O)[C@H](O)[C@H]2O)[C@H](O)[C@H]1O)C(N)=O)C(C)C` [TES2320] (H-HSDGIFTDSYSRYRKQ[Nle]AVKKYLS(X1)-NH2; N-terminus assumed) here?
A: Its value is “prevented”.

Q: What about the “effect on mTBI-induced spontaneous LHb tonic hyperactivity” value (late intervention, single 10 mg/kg i.p. one month post-mTBI, vs mTBI+vehicle p<0.05, Chi squared test) of the same compound?
A: Its value is “reversed”.

Q: And the “LHb neurons bursting, spontaneous activity” value [1]?
A: The value was 4%.

Q: And the “LHb neurons silent, spontaneous activity” value [1]?
A: The value was 50%.

Q: And the “LHb neurons tonic, spontaneous activity” value [1]?
A: Its value is 46%.

Q: And the “LHb neurons bursting, spontaneous activity” value [2]?
A: Its value is 5%.

Q: And the “LHb neurons silent, spontaneous activity” value [2]?
A: The value was 48%.

Q: What about the “LHb neurons tonic, spontaneous activity” value [2] of the same compound?
A: The value was 47%.
